# Laboratory results reported in publication PMC13476069, “Cryo-EM structure of the bicarbonate receptor GPR30” (eLife, 2026).
# pEC50: −log10 of the molar value.
# What was measured:
# [1] = tested on: GPR30 E115^2.61 mutant; details: effect of E115^2.61 mutation; ref Jo-Watanabe et al., 2024; cited from earlier work
# [2] = tested on: mock HEK293 cells; details: mock stable HEK293 cells; NaHCO3; normalized to 50 µM ATP; four-parameter fit
# Description: (§1) HEK293A cells (Thermo Fisher Scientific, Cell lines are authenticated by the supplier. No additional authentication was performed by the authors in this study. Mycoplasma contamination is not tested.) were maintained at 37°C and 5% CO2. […] Stable cell lines were established through antibiotic drug selection. The HEK293A cells were transfected with the N-terminal HA-tagged wild-type and mutant Gpr30 and maintained in the culture medium containing 1 mg/ml of G418.
# (§2) Stable HEK293 cells (2×10^4 cells/well) were seeded into a black wall and clear bottom 96-well plate 24 hr before the assay. […] The cells were washed twice with HEPES buffer. The cells were stimulated with indicated concentrations of NaHCO3 and 50 µM ATP at 37°C and 0.03% CO2. The fluorescence intensity was analyzed using FlexStation 3 (Molecular Devices, Ex/Em = 490/525 nm). The difference between the maximum and minimum fluorescent values during 15–60 s was normalized by those with ATP stimulation. Nonlinear regression (four-parameter) was used for curve fitting, and EC50 and Top (maximum response) were calculated.
# (§3) Nonlinear regression (four-parameter) was used for curve-fitting over the data shown in Figure 3F, and EC50 and Top (maximum response) were calculated. The values of cell surface and total expression are derived from Figure 3.—figure supplement 1 and 3, respectively.
# [3] = tested on: GPR30 H307^7.36 mutant; details: effect of H307^7.36 mutation; ref Jo-Watanabe et al., 2024; cited from earlier work
# [4] = target: T1, human GPR30 Q138^3.33A mutant (Homo sapiens, UniProt Q99527, Q138A); details: effect of Q138^3.33 mutation; ref Jo-Watanabe et al., 2024; cited from earlier work
# [5] = target: human GPR30 E218^5.42A mutant (Homo sapiens, UniProt Q99527, E218A); details: stable HEK293, HA-tagged E218^5.42A, NaHCO3, four-parameter fit
# Source text: (§4) Human Gpr30 cDNA was obtained from human hepatoblastoma-derived HepG2 cells. The coding sequences of human Gpr30 were inserted into the multi-cloning site of the plasmid vector pCXN2, which was generated in our laboratory via modification of pCAGGS, between the KpnI and EcoRI sites. The […] HA-tagged Gpr30 was amplified using a reverse primer containing the HA sequence. One amino acid mutation of human GPR30 was generated as follows: the targeted amino acid was changed to alanine (GCC) using a two-step PCR method with the QuikChange Primer Design Program by Agilent (https://www.agilent.com/store/primerDesignProgram.jsp), and the coding sequence with each mutation was inserted into the multi-cloning site of pCXN2 between the KpnI and EcoRI sites. The mutations generated were D111A, E121A, R122A, D125A, S134A, Q138A, D210A, Q215A, E218A, N276A, Q296A, C207A, P71A, and H307A.
# as §1, §2, §3
# [6] = target: human GPR30 D210^ECL2A mutant (Homo sapiens, UniProt Q99527, D210A)
# Source text: as §4, §1, §2, §3
# [7] = target: human GPR30 R122^ECL1A mutant (Homo sapiens, UniProt Q99527, R122A); details: stable HEK293, HA-tagged R122^ECL1A, NaHCO3, four-parameter fit
# Source text: as §4, §1, §2, §3
# [8] = target: human GPR30 D125^ECL1A mutant (Homo sapiens, UniProt Q99527, D125A)
# Source text: as §4, §1, §2, §3
# [9] = target: human GPR30 Q296^ECL3A mutant (Homo sapiens, UniProt Q99527, Q296A); details: stable HEK293, HA-tagged Q296^ECL3A, NaHCO3, four-parameter fit
# Source text: as §4, §1, §2, §3
# [10] = target: human GPR30 N276^6.52A mutant (Homo sapiens, UniProt Q99527, N276A); details: stable HEK293, HA-tagged N276^6.52A, NaHCO3, four-parameter fit
# Source text: as §4, §1, §2, §3
# [11] = target: human GPR30 Q215^5.39A mutant (Homo sapiens, UniProt Q99527, Q215A); details: stable HEK293, HA-tagged Q215^5.39A, NaHCO3, four-parameter fit
# Source text: as §4, §1, §2, §3
# [12] = target: human GPR30 E121^ECL1A mutant (Homo sapiens, UniProt Q99527, E121A); details: stable HEK293, HA-tagged E121^ECL1A, NaHCO3, four-parameter fit
# Source text: as §4, §1, §2, §3
# [13] = target: T1, human GPR30 Q138^3.33A mutant
# Source text: as §4, §1, §2, §3
# [14] = target: human GPR30 D111^2.56A mutant (Homo sapiens, UniProt Q99527, D111A); details: stable HEK293, HA-tagged D111^2.56A, NaHCO3, four-parameter fit
# Source text: as §4, §1, §2, §3
# [15] = target: human GPR30 P71^1.44A mutant (Homo sapiens, UniProt Q99527, P71A)
# Source text: as §4, §1, §2, §3
# [16] = target: human GPR30 C207^ECL2A mutant (Homo sapiens, UniProt Q99527, C207A)
# Source text: as §4, §1, §2, §3
# [17] = target: human GPR30 S134^3.29A mutant (Homo sapiens, UniProt Q99527, S134A); details: stable HEK293, HA-tagged S134^3.29A, NaHCO3, four-parameter fit
# Source text: as §4, §1, §2, §3
# [18] = target: T2, human GPR30 wild-type (WT) (Homo sapiens, UniProt Q99527); details: stable HEK293, HA-tagged WT GPR30, NaHCO3, four-parameter fit
# Source text: as §4, §1, §2, §3
# [19] = target: T2, human GPR30 wild-type (WT); details: physiological concentration of bicarbonate ions; ref Jo-Watanabe et al., 2024; cited from earlier work
# [20] = stable HEK293, HA-tagged D210^ECL2A, NaHCO3, four-parameter fit
# [21] = stable HEK293, HA-tagged D125^ECL1A, NaHCO3, four-parameter fit
# [22] = Q138^3.33A vs wild-type, calcium assay
# [23] = stable HEK293, HA-tagged Q138^3.33A, NaHCO3, four-parameter fit
# Chain of human GPR30 D125^ECL1A mutant (Q99527 whole entry D125A): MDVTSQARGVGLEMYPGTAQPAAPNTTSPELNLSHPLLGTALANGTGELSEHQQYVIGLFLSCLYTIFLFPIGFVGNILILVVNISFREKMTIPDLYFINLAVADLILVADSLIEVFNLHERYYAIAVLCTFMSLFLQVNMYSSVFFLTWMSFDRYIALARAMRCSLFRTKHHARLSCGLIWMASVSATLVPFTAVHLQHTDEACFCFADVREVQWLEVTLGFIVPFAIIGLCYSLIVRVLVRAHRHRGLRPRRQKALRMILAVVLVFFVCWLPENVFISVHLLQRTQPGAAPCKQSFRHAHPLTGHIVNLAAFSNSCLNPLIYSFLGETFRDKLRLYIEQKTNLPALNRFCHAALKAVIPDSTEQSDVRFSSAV
# Chain of human GPR30 R122^ECL1A mutant (Q99527 whole entry R122A): as the sequence (Q99527 whole entry D125A) above, with R122A, A125D counted along it
# Chain of human GPR30 D111^2.56A mutant (Q99527 whole entry D111A): as the sequence (Q99527 whole entry D125A) above, with D111A, A125D counted along it
# Chain of human GPR30 D210^ECL2A mutant (Q99527 whole entry D210A): as the sequence (Q99527 whole entry D125A) above, with A125D, D210A counted along it
# Chain of human GPR30 E121^ECL1A mutant (Q99527 whole entry E121A): as the sequence (Q99527 whole entry D125A) above, with E121A, A125D counted along it
# T2 sequence (Q99527 whole entry): as the sequence (Q99527 whole entry D125A) above, with A125D counted along it
# Chain of human GPR30 S134^3.29A mutant (Q99527 whole entry S134A): as the sequence (Q99527 whole entry D125A) above, with A125D, S134A counted along it
# Chain of human GPR30 N276^6.52A mutant (Q99527 whole entry N276A): as the sequence (Q99527 whole entry D125A) above, with A125D, N276A counted along it
# Chain of human GPR30 Q296^ECL3A mutant (Q99527 whole entry Q296A): as the sequence (Q99527 whole entry D125A) above, with A125D, Q296A counted along it
# Chain of human GPR30 Q215^5.39A mutant (Q99527 whole entry Q215A): as the sequence (Q99527 whole entry D125A) above, with A125D, Q215A counted along it
# Chain of human GPR30 E218^5.42A mutant (Q99527 whole entry E218A): as the sequence (Q99527 whole entry D125A) above, with A125D, E218A counted along it
# T1 sequence (Q99527 whole entry Q138A): as the sequence (Q99527 whole entry D125A) above, with A125D, Q138A counted along it
# Chain of human GPR30 P71^1.44A mutant (Q99527 whole entry P71A): as the sequence (Q99527 whole entry D125A) above, with P71A, A125D counted along it
# Chain of human GPR30 C207^ECL2A mutant (Q99527 whole entry C207A): as the sequence (Q99527 whole entry D125A) above, with A125D, C207A counted along it
smiles,measurement,setting,value
O=C(O)O [bicarbonate],bicarbonate-dependent calcium response,[1],abolish
same,Top (maximum response),[2],0.08132
same,bicarbonate-dependent calcium response,[3],abolish
same,bicarbonate-dependent calcium response,[4],abolish
same,pEC50,[5],2.43
same,LogEC50,[5],0.5701
same,Top (maximum response),[5]; normalized to 50 µM ATP,0.9426
same,maximum response relative to GPR30 wild-type,"[6]; D210^ECL2A vs wild-type, calcium assay",half
same,reactivity to bicarbonate (calcium response),"[6]; effect of D210^ECL2A mutation, stable HEK293",reduced reactivity
same,pEC50,[6]; [20],2.27
same,LogEC50,[6]; [20],0.7335
same,Top (maximum response),"[6]; stable HEK293, HA-tagged D210^ECL2A, NaHCO3, normalized to 50 µM ATP, four-parameter fit",0.6256
same,pEC50,[7],2.46
same,LogEC50,[7],0.5393
same,Top (maximum response),[7]; normalized to 50 µM ATP,0.877
same,bicarbonate-dependent calcium responses,"[8]; effect of D125^ECL1A mutation, stable HEK293",abolished
same,EC50,[8]; [21],Unstable
same,LogEC50,[8]; [21],Unstable
same,Top (maximum response),"[8]; stable HEK293, HA-tagged D125^ECL1A, NaHCO3, normalized to 50 µM ATP, four-parameter fit",0.0868
same,pEC50,[9],2.51
same,LogEC50,[9],0.4903
same,Top (maximum response),[9]; normalized to 50 µM ATP,0.9637
same,pEC50,[10],2.54
same,LogEC50,[10],0.4605
same,Top (maximum response),[10]; normalized to 50 µM ATP,0.948
same,pEC50,[11],2.35
same,LogEC50,[11],0.6544
same,Top (maximum response),[11]; normalized to 50 µM ATP,0.8471
same,pEC50,[12],2.33
same,LogEC50,[12],0.6733
same,Top (maximum response),[12]; normalized to 50 µM ATP,0.9457
same,EC50 compared with wild-type GPR30,[13]; [22],higher
same,maximum response relative to GPR30 wild-type,[13]; [22],one-third
same,reactivity to bicarbonate (calcium response),"[13]; effect of Q138^3.33A mutation, stable HEK293",reduced reactivity
same,pEC50,[13]; [23],1.97
same,LogEC50,[13]; [23],1.033
same,Top (maximum response),"[13]; stable HEK293, HA-tagged Q138^3.33A, NaHCO3, normalized to 50 µM ATP, four-parameter fit",0.4166
same,pEC50,[14],2.63
same,LogEC50,[14],0.3703
same,Top (maximum response),[14]; normalized to 50 µM ATP,1.244
same,bicarbonate-dependent calcium responses,"[15]; effect of P71^1.44A mutation, stable HEK293",abolished
same,Top (maximum response),"[15]; stable HEK293, HA-tagged P71^1.44A, NaHCO3, normalized to 50 µM ATP, four-parameter fit",0.1079
same,bicarbonate-dependent calcium responses,"[16]; effect of C207^ECL2A mutation, stable HEK293",abolished
same,Top (maximum response),"[16]; stable HEK293, HA-tagged C207^ECL2A, NaHCO3, normalized to 50 µM ATP, four-parameter fit",0.06277
same,pEC50,[17],2.30
same,LogEC50,[17],0.6966
same,Top (maximum response),[17]; normalized to 50 µM ATP,0.8079
same,pEC50,[18],2.42
same,LogEC50,[18],0.5838
same,Top (maximum response),[18]; normalized to 50 µM ATP,1.155
same,"activation of GPR30, Gq-coupled calcium responses",[19],activates
